Measurements from patent US7151108B2, “[3,4-a:3,4-c]carbazole compounds” (Les Laboratories Servier, priority 2002, dated 2006).

What was measured:
L1210 murine leukaemia = test: In vitro antiproliferative activity (Microculture Tetrazolium Assay) on L1210; assay type: cell-based; conditions: L1210 cells, exposure 4 doubling periods or 48 hours; read-out: IC50, the concentration of cytotoxic agent that inhibits the proliferation of the treated cells by 50%
Protocol: (§1) Three cell lines were used: • L1210 murine leukaemia • A549 non-small-cell human lung carcinoma • DU145 prostate carcinoma
(§2) L1210 murine leukaemia was used in vitro. The cells are cultured in RPMI 1640 complete culture medium containing 10% foetal calf serum, 2 mM glutamine, 50 units/ml of penicillin, 50 μg/ml of streptomycin and 10 mM Hepes, pH: 7.4. The cells are distributed on microplates and are exposed to the cytotoxic compounds for 4 doubling periods, or 48 hours. The number of viable cells is then quantified by a colorimetric assay, the Microculture Tetrazolium Assay (J. Carmichael et al., Cancer Res.; 47, 936–942 (1987)). The results are expressed as the IC50, the concentration of cytotoxic agent that inhibits the proliferation of the treated cells by 50%.

[1] = tested on: A549 non-small-cell human lung carcinoma; test: In vitro antiproliferative activity (Microculture Tetrazolium Assay) on A549; assay type: cell-based; conditions: A549 cells; read-out: IC50, the concentration of cytotoxic agent that inhibits the proliferation of the treated cells by 50%
Protocol: as §1, §2

DU145 prostate carcinoma = test: In vitro antiproliferative activity (Microculture Tetrazolium Assay) on DU145; assay type: cell-based; conditions: DU 145 cells; read-out: IC50, the concentration of cytotoxic agent that inhibits the proliferation of the treated cells by 50%
Protocol: as §1, §2

Row | SMILES | melting point | IC50 (L1210 murine leukaemia) [µM] | IC50 [1] [µM] | IC50 (DU145 prostate carcinoma) [µM]
1 | Cn1c(=O)c2c3[nH]c4ccccc4c3c3c(=O)oc(=O)c3c2c1=O | 294 °C (dec.) |  |  | 
2 | Cn1c(=O)c2c3[nH]c4ccccc4c3c3c(=O)n(C)c(=O)c3c2c1=O [Example 2, 2,5-dimethyl-1H-dipyrrolo[3,4-a:3,4-c]carbazole-1,3,4,6(2H,5H,7H)-tetrone] |  | 6.8 | 4.7 | 5.4
